Values belong to the compound of their own block, whether it stands above or below them.
Experiments:
ABCH2 [1] = target: T1, ABCH2 (Anopheles coluzzii, UniProt A0A6E8VHH0); experiment: malachite green ATPase assay, Sf9 inverted membrane vesicles; assay type: biochemical; settings: basal activity without deltamethrin, 1 mM ATP, MgCl2, Tris pH 8, 37 C, 15 min; empty-bacmid background subtracted
T1 construct: full ORF, codon-optimised for S. frugiperda, pFastBac1 baculovirus in Sf9 cells, untagged, membrane vesicles; about 85 kDa half-transporter, proposed homodimer
T1 sequence (A0A6E8VHH0 1-760): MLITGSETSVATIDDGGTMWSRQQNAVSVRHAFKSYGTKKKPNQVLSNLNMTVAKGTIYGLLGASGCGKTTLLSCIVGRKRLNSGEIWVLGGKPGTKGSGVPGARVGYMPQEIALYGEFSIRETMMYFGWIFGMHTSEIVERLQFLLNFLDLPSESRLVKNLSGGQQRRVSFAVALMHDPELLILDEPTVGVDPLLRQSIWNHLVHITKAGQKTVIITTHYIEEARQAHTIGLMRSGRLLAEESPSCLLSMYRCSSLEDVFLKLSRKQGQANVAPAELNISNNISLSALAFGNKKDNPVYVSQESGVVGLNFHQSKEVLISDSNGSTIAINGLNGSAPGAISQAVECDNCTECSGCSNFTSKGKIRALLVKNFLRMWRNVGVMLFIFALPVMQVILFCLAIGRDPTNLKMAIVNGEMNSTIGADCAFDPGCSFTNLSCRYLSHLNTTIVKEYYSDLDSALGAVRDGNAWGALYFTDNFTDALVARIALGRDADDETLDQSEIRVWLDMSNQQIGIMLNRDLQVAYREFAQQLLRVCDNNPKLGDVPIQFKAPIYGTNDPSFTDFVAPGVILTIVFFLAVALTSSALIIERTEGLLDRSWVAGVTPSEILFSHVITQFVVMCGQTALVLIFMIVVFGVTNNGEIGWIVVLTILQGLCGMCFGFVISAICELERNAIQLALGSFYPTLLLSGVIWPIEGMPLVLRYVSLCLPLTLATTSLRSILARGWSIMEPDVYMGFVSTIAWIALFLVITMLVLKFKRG

ABCH2 [2] = target: T1, ABCH2; experiment: as above; assay type: biochemical; settings: 120 uM deltamethrin, DMSO/ethanol, 1 mM ATP, MgCl2, Tris pH 8, 37 C, 15 min; empty-bacmid background subtracted; transport not shown directly
[3] = target: ABCH2 transporter (ATP-Binding Cassette transporter from the H family) of Anopheles coluzzii (Anopheles coluzzii)

Compound: Nc1ncnc2c1ncn2[C@@H]1O[C@H](COP(=O)(O)OP(=O)(O)OP(=O)(O)O)[C@@H](O)[C@H]1O [ATP]
malachite green ATPase assay, Sf9 inverted membrane vesicles (ABCH2 [1]): indicate an ATP hydrolysis specific to ABCH2 expression

Compound: CC1(C)[C@H](C(=O)O[C@H](C#N)c2cccc(Oc3ccccc3)c2)[C@@H]1C=C(Br)Br [deltamethrin]
fold stimulation of basal ATPase activity at 120 uM (ABCH2 [2]): ~ 1.6 fold

estimated basal rate of ATP hydrolysis of ABCH2 in inverted membrane vesicles of Sf9 cells expressing ABCH2 on its own (pmoles Pi/pmol ABCH2/minute) [3]: 178
Compound: ABCH2 transporter (ATP-Binding Cassette transporter from the H family) of Anopheles coluzzii (natural protein)
